In a melting point compilation (Tetko et al.; mined from patent text by program, amines drawn as free bases though some values may be those of a salt):
Structures can show the parent of a compound that is named as a salt. Residues, ends and D or L forms follow the SMILES beside them. *: point of attachment. Tfa = O=C(C(F)(F)F)*

SMILES | melting point [°C]
O=C1CCCc2cc(OCc3ccccc3)ccc21 | 95 to 97
COc1ccccc1N1CCN(CC(O)COc2ccc(OCc3ccccc3)c3ccccc23)CC1 (stereo not drawn) | 143 to 145
CCOC(=O)c1nc(-c2ccc([N+](=O)[O-])cc2)[nH]c1-c1ccc(OCC)cc1 | 214 to 217
N#Cc1cc(-c2ccoc2)c2ccc(OCc3cccc(-c4ccc(F)cc4)n3)cc2c1 | 168 to 170
Oc1cc(C(F)(F)F)nn1-c1ccccc1 | 190 to 192
COC(=O)CCC(=O)c1ccc(S)cc1 | 83 to 84
CCOC(=O)c1cc2ccccc2n1CC#N | 65 to 67
O=C1OCCC1Oc1ccc(C(F)(F)F)cc1[N+](=O)[O-] (stereo not drawn) | 128 to 129
CS(=O)(=O)c1ccc(-c2cnn(-c3ccc(F)cc3)c(=O)c2Oc2ccc(F)cc2)cc1 | 83 to 85
O=C(Cl)c1sc2ccc(Oc3ccccc3)cc2c1Cl | 117 to 119
CCOP(=O)(/C=C/c1ccc2cc(NC(=O)c3cccnc3)cc(-c3cccc4ccccc34)c2n1)OCC | 216 to 217
CCCC(C)(c1ccc(F)cc1)c1cc(O)c2c3c(c(=O)oc2c1)CCC3 (stereo not drawn) | 133 to 135
CCc1cc2c(-c3ccccc3Cl)c(C(=O)O)c(=O)n(C)c2s1 | 155 to 156
COc1cccc(/C=C/C(=O)/C=C/C(=O)O)c1 | 158 to 160
O=C(O)CCCN1CCN2c3ccccc3Cc3ccccc3C2C1 (stereo not drawn) | 104 to 105
COc1cc(N)c2nc(OCc3ccc(Cl)cc3)ccc2c1 | 124 to 125
CC1(CSc2ccccc2)COC2(CCCCC2)OO1 (stereo not drawn) | 45 to 46
Cc1cc(SCc2ccc(OCc3ccccc3)cc2)ccc1OCC(=O)O | 120 to 121
O=C(O)CSc1c(-c2cc(Cl)ccc2O)c2cc(C(F)(F)F)ccc2[nH]c1=O | 235
C#CC(C)N(C)c1nc2ccc(OC(F)(F)F)cc2s1 (stereo not drawn) | 42 to 43
CC(C)(C)c1cc(C2CC(=O)N(c3ccccc3)C2=O)cc(C(C)(C)C)c1O (stereo not drawn) | 204
CC(C)n1cc(-c2ccc(NC(=O)c3ccccc3)cc2)c2c(N)ncnc21 | 192 to 195
COc1ccc([N+](=O)[O-])c(Nc2ccccc2O)n1 | 206 to 207

SMILES | melting point [°C]
CC12CC(N3CCC4(CC3)OCCO4)C(O)CC1CCC1C2CCC2(C)C(O)C(N3CCC4(CC3)OCCO4)CC12 (stereo not drawn) | 180 to 182
CCCOc1c(OC)c(OC)cc(C)c1C(=O)c1c(Cl)cccc1Cl | 143
CCc1nc2c(-c3cc4ccoc4cc3C)ncnc2n1C(C1CC1)C1CC1 | 139 to 141
NC(=O)c1ccc(C(=O)O)c(N)c1 | 276 to 278
CC12CCC(C(=O)Nc3ccccc3C(c3ccc(O)cc3)c3ccc(O)cc3)(OC1=O)C2(C)C (stereo not drawn) | 229 to 231
O=C1c2ccccc2C2(c3ccccc3)N1CCS2(=O)=O (stereo not drawn) | 190 to 193
COc1ccc(C(=O)Nc2ccccc2)cc1NS(=O)(=O)c1ccc([N+](=O)[O-])cc1 | 224 to 227
COC(=O)C(Cc1ccccc1)NC(=O)C(CC(=O)O)NC(=O)C(F)(F)F (stereo not drawn) (Tfa-Asp-Phe-OMe; configuration not given here) | 150 to 151
CC(C)(O)Cc1cc(O)ccc1Br | 139 to 141
O=C(c1c(F)cccc1F)n1c(-c2c(F)cccc2F)nc2ccccc21 | 145
Nc1cc(C2SCCCS2)c(Cl)cc1F | 112 to 115
CCCCCCCCCCS(=O)(=O)NC(=O)c1cnc(C(=O)O)c(OC)c1 | 145
NS(=O)(=O)c1ccc(-c2noc(-c3cnn4c(C5CC5)cc(-c5ccc(Cl)cc5)nc34)n2)s1 | 294
COC=C(C(=O)OC)c1ccccc1CON=C(C)c1nn(C)c2cc(OCC3CC3(Cl)Cl)c(F)cc12 (stereo not drawn) | 138 to 140
CCc1cc2c(s1)N(C(=O)N(C)C)CCN=C2c1ccccc1 | 237 to 238
O=C(O)c1cc(-c2ccc(OCc3ccccc3)cc2OCc2ccccc2)n[nH]1 | 218 to 219
COc1ccc(-c2nc(Sc3ccccc3OC)[nH]c2-c2ccc(OC)cc2)cc1 | 161
CC1CN2C(=O)c3nc[nH]c3N(Cc3ccc(Cl)cc3)C2=N1 (stereo not drawn) | 259 to 260
Cc1c(Cc2nc3n(-c4c(Cl)cc(Cl)cc4Cl)[nH]c(C(C)C)c-3c(=O)n2)cccc1NC(=O)CCl | 237 to 238
CC(=O)Nc1c(C#N)cnn1-c1c(Cl)cc(C(F)(F)F)c(Cl)c1Cl | 177 to 178
CCOP(=O)(O)Cc1ccc(NC(=O)N2CCN(c3ccc(NC(=O)Nc4cc(C)ccc4OC)cc3)CC2)c(C)c1 | 165 to 173
COc1cccc(/C=C/C(=O)N2CC(CCl)c3c2cc([N+](=O)[O-])c2ccccc32)c1 (stereo not drawn) | 200
CCSc1oc2ccccc2c(=S)c1C#N | 175 to 179

SMILES | melting point [°C]
O=C1c2ccc(S(=O)(=O)c3ccccc3)cc2C(=O)c2cc3ccccc3cc21 | > 260
NC(=O)Cc1cc(Cl)ccc1[N+](=O)[O-] | 115 to 116
Cc1ccc(-c2ccc(S(=O)(=O)N3CCN(C(=O)C4CCN(c5ccncc5)CC4)CC3)cc2)cc1 | 213 to 217
O=C1NCCCN1C1CCN(CC[C@H](c2ccc(Cl)c(Cl)c2)[C@@H](O)c2ccnn2-c2ccccc2)CC1 (racemic) | 174 to 176
CN1CCC(n2ccc(-c3ccc(F)cc3)c2-c2ccncc2)CC1 | 187 to 189
CC[C@@H](c1ccccc1)N(Cc1ccc(C(=O)O)cn1)S(=O)(=O)c1ccc(Cl)cc1 | 112 to 113
CNc1ncnc2c1ncn2C1OC(CO)C(OC)C1(C)O (stereo not drawn) | 165
O=C1CCC(=O)N1Cc1cccc(Nc2n[nH]c3ncnc(Nc4cccc(Cl)c4)c23)c1 | 140 to 142
C=CC(=O)NCc1cc([N+](=O)[O-])ccc1C | 155 to 158
O=C(NCCO)c1cccc(-c2ccc3[nH]cc(-c4ccc(Cl)cc4Cl)c3c2)c1 | 140 to 141
COc1ccc2cc(-c3ccc(S(C)=O)cc3)ccc2n1 (stereo not drawn) | 164 to 166
O=C1NC(=O)c2c1c(O)nc1cc(Cl)c(Cl)cc21 | > 350
O=C(O)CCc1ccc(OCCc2ccccc2)cc1 | 91 to 92
O=C1N(CCCO)c2ccccc2C12COc1cc3c(cc12)OCCO3 (stereo not drawn) | 157 to 158
Cc1nc(-c2cc(Cl)ccc2Cl)n2c1nnc1ccc(-c3cc(Cl)ccc3Cl)cc12 | 190 to 193
Nc1ccc(-c2ccc(N)cc2Br)c(Br)c1 | 151 to 153
CC=CCn1c(C)c(C)c2cnnc(OCc3ccccc3)c21 | 81 to 84
CC1(C)OCC(C)(C)c2cc(OS(C)(=O)=O)ccc2O1 | 65 to 67
O=C(O)CCCOc1cccc(OCCC(c2ccccc2)(c2ccccc2)c2ccccc2)c1 | 53 to 55
c1ccc(-n2c3ccccc3c3cc(-n4ccnc4-c4nccn4-c4ccc5c(c4)c4ccccc4n5-c4ccccn4)ccc32)nc1 | 215 to 227
COC(=O)C1CCC2C3CCC4CC5OC5CC4(C)C3C(=O)CC12C (stereo not drawn) | 140 to 145
Nc1c(-c2cc(Cl)ccc2O)nnn1-c1ccc(C(F)(F)F)cc1Cl | 74.5 to 77.5
